# Assay results reported in patent US12625427B2, “Naphthalimide sulfonate derivative, and photoacid generator and photoresist composition each comprising same” (SAMYANG CORPORATION, priority 2020, dated 2026).
# How the values were obtained:
# [1] = Measurement of solubility of photoacid generators in photoresist solvents; format: physicochemical; details: for Solubility (w/v %) PGMEA: solvent PGMEA; for Solubility (w/v %) Cyclohexane: solvent cyclohexane
# Text: In preparing a photoresist composition, solubility of a photoacid generator is very important.
# [2] = Measurement of thermal stability by thermogravimetric analyzer; format: physicochemical
# Text: If a photoacid generator is thermally stable in a photoresist preparation process, a very good effect in terms of stability can be expected.
Structure (SMILES),Solubility (w/v %) PGMEA [1] [w/v %],Solubility (w/v %) Cyclohexane [1] [w/v %],Temperature at which 5% weight loss occurred [2] [°C]
CCCCOC(CCC)c1ccc2c3c(cccc13)C(=O)N(OS(=O)(=O)C(F)(F)F)C2=O (stereo not shown) [Compound 8],50.0,62.3,232
CCCC(OC)c1ccc2c3c(cccc13)C(=O)N(OS(=O)(=O)C(F)(F)F)C2=O (stereo not shown) [Compound 11],–,–,230
CCCC(OCCOC)c1ccc2c3c(cccc13)C(=O)N(OS(=O)(=O)C(F)(F)F)C2=O (stereo not shown) [Compound 19],60.0,64.1,234
CCCCOCCOC(CCC)c1ccc2c3c(cccc13)C(=O)N(OS(=O)(=O)C(F)(F)F)C2=O (stereo not shown) [Compound 20],45.0,54.1,235
"O=C1c2cccc3cccc(c23)C(=O)N1OS(=O)(=O)C(F)(F)F [Formula II, reference compound]",1.7,5.8,223
